Test results: patent US4070469A, “Compound for the treatment of bovine mastitis” (priority 1975, dated 1978)
Converted amounts (≈) assume the structure as drawn. “Also recorded” adds a separate entry of the source. Like-named read-outs stand apart in the source and are kept apart here.

Assays:
Staph.Aureus [1] = assay: Minimal bactericidal activity (MBC) in milk, field isolates; type: cell-based; settings: Staphylococcus aureus, in milk at pH 7.2 - 7.4
Excerpt: (§1) The activity of some of said nitrofuryl quinolines derivatives against Strep.uberis and Stap.Aureus in milk has been compared with the activity of some of the compounds so far utilised in the treatment of bovine mastitis. The results are shown in Table I. (The nitrofuryl quinoline derivatives have general formula [drawing 1] the meaning of R, A, R', B, Y, X and Z being given in the Table. R1 =O whenever indicated then the N-oxide is concerned; NF stands for nitrofuryl)
(§2) Minimal Bactericidal/Activity (MBC) of representative Nitrofuryl
(§3) in mcg/ml in milk at pH 7.2 - 7.4. Versus Standards (Field

Strep.uberis = assay: as above; type: cell-based; settings: Streptococcus uberis, in milk at pH 7.2 - 7.4
Excerpt: as §1, §2, §3

[2] = test system: Strep.uberis and Stap.Aureus; assay: Activity against mastitis bacteria in presence of milk (Table I, summary in words); type: cell-based
Excerpt: as §1

[3] = Residue of active compound in milk of the cow; type: in vivo; settings: 500 mg in 7 ml P.E.G. base
Method: Said four compounds were then tested for the length of time they could be detected in the milk of the cow. For this purpose 500 mg in 7 ml of a polyethylene glycol (P.E.G.) base of each compound were administered to several cows and the residue of active compound in milk were measured in mcg/ml after 24, 32 and 40 hours respectively.

udder = assay: Number of leucocytes (somatic cells) in milk / irritation of the udder; type: in vivo, cow
Method: Thereafter 500 mg of each of said compounds in 7 ml of a P.E.G. base and also 7 ml of said base above were administered to several cows and the number of leucocytes (sematic cells) in 10^6 per ml of milk were measured before administration and 40, 48 and 56 hours thereafter. The numbers of leucocytes present indicate the degree of irritation of the udder.

LD50 mice = settings: mouse, in vivo
LD50 rats = settings: rat, in vivo
C.pyogenes = assay: Sensitivity of udder pathogens in milk, serial dilution; type: cell-based; settings: 24 hours, 3 strains
Method: (§4) This indication was verified by testing in vitro by the method of serial dilution the sensitivity of said compound against udder pathogens in milk in various concentrations measured in meg/ml of milk. The number of strains which were killed at each concentration were measured after 24 hours.

Enterococci = assay: as above; type: cell-based; settings: 24 hours, 8 strains
Method: as §4

Staph.Aureus [4] = assay: as above; type: cell-based; settings: 24 hours, 86 strains
Method: as §4

Str.agalactiac = assay: as above; type: cell-based; settings: 24 hours, 34 strains
Method: as §4

Str.dysgalactiae = assay: as above; type: cell-based; settings: 24 hours, 18 strains
Method: as §4

Str.uberis = assay: as above; type: cell-based; settings: 24 hours, 32 strains
Method: as §4

Steph.aureus = assay: Efficiency test in cows suffering from bovine mastitis; type: in vivo, cow; settings: 2 doses, 24 hours interval
Method: In has been shown that said range is effectful by an efficiency test in which various doses of 4-(5-nitrofuryl)-.quinaldinic acid N-oxide were administered to cows suffering from bovine mastitis. There were adminstered 2 doses in intervals of 24 hours. The results are shown in Table V in cured quarters/treated quarters.

Str.dysgal. = assay: as above; type: in vivo, cow; settings: 2 doses, 24 hours interval
Str.uberls = assay: as above; type: in vivo, cow; settings: 2 doses, 24 hours interval
[5] = 25 meg/ml of milk (so in the source)

## O=C(O)c1cc(-c2ccc([N+](=O)[O-])o2)c2ccccc2[n+]1[O-] [Compound 1, 2-carboxy-4-[2'-(5'-nitrofuryl)]quinoline N-oxide]
Staph.Aureus [1]; field isolate 2337, read-out: Minimal Bactericidal Activity (MBC), Staph.Aureus 2337
  MBC: 0.5 µg/mL (≈ 1.67 µM)
Staph.Aureus [1]; field isolate 2372, read-out: Minimal Bactericidal Activity (MBC), Staph.Aureus 2372
  MBC: 0.25 µg/mL (≈ 0.833 µM)
Strep.uberis; field isolate 60B, read-out: Minimal Bactericidal Activity (MBC), Strep.uberis 60B
  MBC: 0.015 µg/mL (≈ 0.05 µM)
Strep.uberis; field isolate 127A, read-out: Minimal Bactericidal Activity (MBC), Strep.uberis 127A
  MBC: 0.25 µg/mL (≈ 0.833 µM)
[2]
  activity in presence of milk (in words): significant activity in milk; also recorded: the most active one
[3]
  time remaining in the milk (in words): remained the shortest time in the milk
[3]; bovine, milk, 24 hrs
  concentration at 24 h: 9800 ng/mL
udder; 500 mg in 7 ml P.E.G. base
  irritation of the udder (in words): caused the lowest irritation
udder; 40 hrs after 500 mg in 7 ml P.E.G. base
  number of leucocytes (sematic cells) in milk, 40 hrs.: 0.95 10^6 per ml
udder; 48 hrs after 500 mg in 7 ml P.E.G. base
  number of leucocytes (sematic cells) in milk, 48 hrs.: 1.5 10^6 per ml
udder; 56 hrs after 500 mg in 7 ml P.E.G. base
  number of leucocytes (sematic cells) in milk, 56 hrs.: 0.95 10^6 per ml
udder; before administration (baseline)
  number of leucocytes (sematic cells) in milk, before: 0.28 10^6 per ml
LD50 mice
  LD50: 3000 mg/kg
LD50 rats
  LD50: 1600 mg/kg
C.pyogenes; 0.62 meg/ml of milk
  number of strains killed: 1 strains
C.pyogenes; 1.25 meg/ml of milk
  number of strains killed: 2 strains
Enterococci; 0.04 meg/ml of milk
  number of strains killed: 2 strains
Enterococci; 0.08 meg/ml of milk
  number of strains killed: 3 strains
Enterococci; 0.16 meg/ml of milk
  number of strains killed: 2 strains
Enterococci; 0.31 meg/ml of milk
  number of strains killed: 1 strains
Staph.Aureus [4]; 0.16 meg/ml of milk
  number of strains killed: 4 strains
Staph.Aureus [4]; 0.31 meg/ml of milk
  number of strains killed: 14 strains
Staph.Aureus [4]; 0.62 meg/ml of milk
  number of strains killed: 51 strains
Staph.Aureus [4]; 1.25 meg/ml of milk
  number of strains killed: 15 strains
Staph.Aureus [4]; [5]
  number of strains killed: 1 strains
Str.agalactiac; 0.02 meg/ml of milk
  number of strains killed: 5 strains
Str.agalactiac; 0.04 meg/ml of milk
  number of strains killed: 12 strains
Str.agalactiac; 0.08 meg/ml of milk
  number of strains killed: 13 strains
Str.agalactiac; 0.16 meg/ml of milk
  number of strains killed: 1 strains
Str.agalactiac; 0.31 meg/ml of milk
  number of strains killed: 1 strains
Str.agalactiac; 0.62 meg/ml of milk
  number of strains killed: 1 strains
Str.agalactiac; 1.25 meg/ml of milk
  number of strains killed: 1 strains
Str.dysgalactiae; 0.02 meg/ml of milk
  number of strains killed: 1 strains
Str.dysgalactiae; 0.04 meg/ml of milk
  number of strains killed: 2 strains
Str.dysgalactiae; 0.08 meg/ml of milk
  number of strains killed: 13 strains
Str.dysgalactiae; 0.16 meg/ml of milk
  number of strains killed: 1 strains
Str.dysgalactiae; 0.62 meg/ml of milk
  number of strains killed: 1 strains
Str.uberis; 0.16 meg/ml of milk
  number of strains killed: 1 strains
Str.uberis; 0.31 meg/ml of milk
  number of strains killed: 9 strains
Str.uberis; 0.62 meg/ml of milk
  number of strains killed: 18 strains
Str.uberis; 1.25 meg/ml of milk
  number of strains killed: 2 strains
Str.uberis; 5 meg/ml of milk
  number of strains killed: 1 strains
Str.uberis; [5]
  number of strains killed: 1 strains
Steph.aureus; 50 mg
  cured quarters, percent: 50%
  cured quarters/treated quarters: 15/30
Steph.aureus; 100 mg
  cured quarters, percent: 75%
  cured quarters/treated quarters: 6/8
Steph.aureus; 250 mg
  cured quarters, percent: 75%
  cured quarters/treated quarters: 6/8
Steph.aureus; 500 mg
  cured quarters, percent: 88%
  cured quarters/treated quarters: 8/9
Str.dysgal.; 50 mg
  cured quarters, percent: 62.5%
  cured quarters/treated quarters: 10/16
Str.dysgal.; 100 mg
  cured quarters, percent: 80%
  cured quarters/treated quarters: 4/5
Str.dysgal.; 250 mg
  cured quarters, percent: 83%
  cured quarters/treated quarters: 5/6
Str.uberls; 50 mg
  cured quarters, percent: 61.5%
  cured quarters/treated quarters: 8/13
Str.uberls; 100 mg
  cured quarters, percent: 80%
  cured quarters/treated quarters: 4/5
Str.uberls; 250 mg
  cured quarters, percent: 80%
  cured quarters/treated quarters: 4/5
Str.uberls; 500 mg
  cured quarters, percent: 84%
  cured quarters/treated quarters: 5/6
